Values belong to the molecule of their own block, whether it stands above or below them.
How the values were obtained:
[1] = system: bovine pulmonary artery endothelial cells (BPAEC); assay: Endothelial cell apoptosis (morphology, Hoechst staining, DNA fragmentation); format: cell-based
Procedure: [Bovine pulmonary artery endothelial cells were incubated with various concentrations of TNF-gamma for 48 hours. The apoptosis was assessed by nuclear staining with Hoechst 33342 fluorescence dye (10 mg/ml).] […] [U937 cells were transfected using lipofectamine (following manufacturer's instruction) with 0.2 mg of reporter plasmid (NF-kappaB-SEAP). The transfected U937 cells were collected and added to the 96-well plate ([…]/well) with various concentrated of TNF-gamma. After Incubation at 37° C. for 72 hr, the NF-kappaB activity was measured with luminometer at absorbance of 450 nm.]
Bovine pulmonary artery endothelia cells (BPAEC) were incubated with various concentrations of TNF-gamma for 48 hours. Apoptosis was assessed morphologically and by nuclear staining with Hoechst 33342 fluorescence dye (10 mg/ml) in triplicate. Live and apoptotic cells were scored in four random fields, about 1,000 cells were counted. The DNA fragmentation was analyzed as described previously.
BPAEC were obtained from the American Type Culture Collection (Rockville, Md., USA). The cells were grown in DMEM supplemented with 10% heat-inactivated FCS in a humidified environment of 5% CO2/[…] at 37° C. as previously described (Yue, T. L., et al., Mol. Pharmacol. 51:951-962 (1997)). Cells at a subconfluent density were used. Before experiments, the medium was changed to DMEM contained 2% FCS. BPAEC from passages 17-20 were used in all studies.
To quantify cells undergoing apoptosis, cell monolayers were fixed and stained with Hoechst […] (Molecular probe, Eugene, Oreg., USA) as described previously (Yue, T. L., et al., Mol. Pharmacol. 51:951-962 (1997)). The morphological features of apoptosis (cell shrinkage, chromatin condensation, blebbing, and fragmentation) were monitored by fluorescence microscopy. Transmission electron microscopy study was done as reported previously (Yue, T. L., et al., Mol. Pharmacol. 51:951-962 (1997)).
DNA ladder: Cells treated with vehicle or TNF-gamma-alpha were lysed in lysis buffer containing 100 mM NaCl, 10 mM Tris-HCl, pH 8.0, 2.5 mM EEDTA, 0.5% SDS, and 100 micrograms/ml […]. The lysates were incubated at 55° C. for 16 h. After incubation, the lysates were gently extracted three times with pheno/chloroform/isoamyl alcohol, precipitated in ethanol, treated with DNAse-free RNAse, re-extracted, and precipitated again as described previously. DNA electrophoresis was carried out in 1.8% agarose gels containing ethidium bromide, and DNA fragmentations were visualized under ultraviolet light.
In situ end-labeling (TUNEL): BPAEC were cultured in two-chamber slides (Nunc) and treated with TNF-gamma-alpha for 8 to 24 h. In situ detection of apoptotic cells was performed by using terminal deoxyribonucleotide transferase-mediated dUTP nick end labeling with an ApopTag in situ apoptosis detection kit (Oncor) following the manufacturer's recommendation.
The cells were plated in two-chamber slides. The cells were cotransfected with 0.5 μg/ml of Pegfp-c-1 (Clontech; Li, Y. and Horwitz, M. S. Biotechnology 23:1026-1028) as a fluorescent marker of transfected cells together with 1 μg/ml of either the empty cloning vector pcDNA1 (control) or the dominant-interfering c-Jun mutant pcDNA1-FlagΔ169 (Xia, Z., et al., Science 270:1326-1331 (1995)) using Calphos Maximizer Transfection Kit (Clontech) according to the manufacturer's recommendation. Following transfection, the cells were allowed to recover in complete medium for 24 h. The cells were treated with TNF-gamma-alpha and the number of apoptotic cells was assessed by nuclear staining after fixation as described in Methods.

[2] = system: bFGF-induced corneal neovascularization; assay: Corneal angiogenic assay; format: in vivo, rat
Text: Basic FGF (“bFGF”) has been tested in this corneal angiogenic assay in various research laboratories for a variety of purposes. It has been shown that bFGF can induce significant angiogenesis in corneas (e.g., in rabbits, rats and mice). Based on the previous studies, bFGF was used in our study of TNF-gamma as an angiogenic factor to induce the growth of blood vessels in rat corneas.
An incision, 1-1.5 mm in length, is made in the center of the cornea with a microsurgery scalpel blade.
Starting at the incision, a micropocket is created between the collagenous layers of the corneal stroma with a Castroviego cyclodialysis spatula. This pocket extends to a point 1-2 mm from the capillary bed at the corneal-scleral limbus.
bFGF, which is incorporated 1:1 into non-inflammatory Hydron polymer (available from Interferon Sciences, New Brunswick, N.J.), is implanted into the pocket.
Five or seven days after corneal implantation, corneal blood perfusion with colloidal carbon is performed. Corneas are then harvested, fixed, flattened, mounted and photographed for morphology.
An image analysis system (IPLab) is used to quantify the corneal angiogenesis. The corneal surface area, which is covered by the new blood vessels, is quantified and used in our current study. After corneal implantation surgery, TNF-gamma, angiostatin or PBS in a volume of 25 microliters was injected into the conjunctival region adjacent to the implantation site. Based on molarities of TNF-gamma and angiostatin, 10 micrograms of TNF-gamma or 5 micrograms of angiostatin were given respectively four times, once a day, during the first four days post-surgery. TNF-gamma and angiostatin were prepared in PBS.
bFGF was used to induce neovascularization of the cornea from preexisting pericorneal limbal vessels in two different versions of the assay. First, corneas were surgically implanted with hydrogel plugs containing bFGF. […] In a separate study using an alternate version of this assay, both bFGF and treatment protein were co-administered on a nitrocellulose filter disk implanted within the rat corneal stroma. […] In both assays, the surface area of the angiogenic response was quantitated from digital images of treated corneas five days following implantation.

[3] = molecular target: T1, TNF-gamma-beta (Homo sapiens, UniProt O95150); assay: FACS binding of receptor-Fc proteins to cells expressing full length TNF-gamma-beta
T1 construct: expressed in transfected cells
T1 sequence (O95150 1-251): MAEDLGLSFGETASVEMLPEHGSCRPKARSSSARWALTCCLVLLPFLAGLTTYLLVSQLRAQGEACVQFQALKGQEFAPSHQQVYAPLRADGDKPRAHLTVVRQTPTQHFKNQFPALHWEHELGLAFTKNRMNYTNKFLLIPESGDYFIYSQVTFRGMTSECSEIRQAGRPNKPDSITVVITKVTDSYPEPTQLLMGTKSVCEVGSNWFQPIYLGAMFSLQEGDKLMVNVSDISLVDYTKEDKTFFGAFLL
Procedure: These cells were used to screen the Fc-fusion form of the extracellular domain of TNFR family members, including TNFR1, Fas, HveA, DR3, DR4, DR5, DR6, DcR1, DcR2, TR6, OPG, RANK, AITR, TAC1, CD40, and OX40. […] TR6 has been previously described as a decoy receptor (Pitti et al., Nature 396:699-703 (1998); Yu et al., J. Biol. Chem. 274:13733-6 (1999)) capable of competing with Fas and HveA for binding of FasL and LIGHT, respectively.
Cells resistant to 0.5 mg/ml Genticin (Invitrogen) were selected and expanded. Expression of TNF-gamma-beta mRNA was confirmed by quantitative RT-PCR analysis and surface expression of TNF-gamma-beta protein confirmed by FACS analyses using TNF-gamma-beta monoclonal antibodies.
One million cells, in 0.1 ml of FACS buffer (PBS, 0.1% BSA, 0.1% NaN3), were incubated with 0.1-1 microgram of protein or antibody at RT for 15 min. The cells were washed with 3 ml of FACS buffer, reacted with biotinylated primary antibody, and stained with PE-conjugated secondary antibody at RT for 15 min. Cells were then washed again, resuspended in 0.5 microgram/ml of propidium iodide, and live cells were gated and analyzed on a FACScan using the CellQuest software (BD Biosciences).

[4] = molecular target: T2, recombinant, untagged TNF-gamma-beta protein (aa 72-251) (human, UniProt O95150 72-251); assay: BIAcore 3000, DR3-Fc immobilised on CM5 chip, TNF-gamma-beta in flow, 1:1 model, three batches
T2 construct: they are put here; also called TL1β; non-tagged TNF-gamma-beta
T2 sequence: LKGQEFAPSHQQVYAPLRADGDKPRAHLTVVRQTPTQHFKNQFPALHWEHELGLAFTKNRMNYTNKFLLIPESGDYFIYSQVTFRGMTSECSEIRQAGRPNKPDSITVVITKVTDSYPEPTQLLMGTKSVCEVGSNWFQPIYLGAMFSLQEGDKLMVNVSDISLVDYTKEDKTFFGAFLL
Procedure: TNFR-Fc were covalently immobilized to the BIAcore sensor chip (CM5 chip) via amine groups using N-ethyl-N′-(dimethylaminopropyl) carbodiimide/N-hydroxysuccinimide chemistry. […] The amount of bound protein was determined during washing of the flow cell with HBS buffer (10 mM HEPES, pH 7.4, 150 mM NaCl, 3.4 mM EDTA, 0.005% Surfactant P20). The flow cell surface was regenerated by displacing bound protein by washing with 20 microliters of 10 mM glycine-HCl, pH 2.3. For kinetic analysis, the on and off rates were determined using the kinetic evaluation program in BIAevaluation 3 software using a 1:1 binding model and the global analysis method.

Molecule: ZVAD-fmk [reference compound]
- effect of caspase inhibitor on TNF-gamma-alpha-induced BPAEC apoptosis ([1]; added 1 h prior to TNF-gamma-alpha, Ac-YYAD-CHO up to 100 μM): attenuated

Molecule: angiostatin
- angiogenic process in bFGF-implanted corneas ([2]; bFGF (300 ng) implant, conjunctival injection once a day for four days, 10 micrograms TNF-gamma or 5 micrograms angiostatin, seven days after surgery, vs PBS): significantly slowed down the angiogenic process
- maximal decrease in rat corneal neovascularization induced by bFGF ([2]; comparison of TNF-gamma-beta and angiostatin): similar
- vessel growth in PBS-implanted corneas ([2]; multiple conjunctival injections): no obvious vessel growth

Molecule: C[S+]([O-])c1ccc(-c2nc(-c3ccncc3)c(-c3ccc(F)cc3)[nH]2)cc1 (stereo not drawn) [SB203580, reference compound]
- reduction of TNF-gamma-alpha-induced BPAEC apoptosis ([1]; 3 μM): 33%
- reduction of TNF-gamma-alpha-induced BPAEC apoptosis ([1]; 10 μM): 51%

- competition with DR3-Fc for binding to TNF-gamma-beta expressing cells ([3]; 2:1 molar ratio of non-tagged TR6 and DR3-Fc): no binding of DR3-Fc was detected
B1: TR6: non-tagged TNFR-6 alpha (DcR3) decoy receptor protein (protein)
chain: VAETPTYPWRDAETGERLVCAQCPPGTFVQRPCRRDSPTTCGPCPPRHYTQFWNYLERCRYCNVLCGEREEEARACHATHNRACRCRTGFFAHAGFCLEHASCPPGAGVIAPGTPSQNTQCQPCPPGTFSASSSSSEQCQPHRNCTALGLALNVPGSSSHDTLCTSCTGFPLSTRVPGAEECERAVIDFVAFQDISIKRLQRLLQALEAPEGWGPTPRAGRAALQLKLRRRLTELLGAQDGALLVRLLQALRVARMPGLERSVRERFLPVH

B2: sTNFR1: Mouse soluble TNF receptor 1 from R&D Systems (protein, UniProt P25118 30-212, looked up)
extracellular domain: LVPSLGDREKRDSLCPQGKYVHSKNNSICCTKCHKGTYLVSDCPSPGRDTVCRECEKGTFTASQNYLRQCLSCKTCRKEMSQVEISPCQADKDTVCGCKENQFQRYLSETHFQCVDCSPCFNGTVTIPCKETQNTVCNCHAGFFLRESECVPCSHCKKNEECMKLCLPPPLANVTNPQDSGTA
modifications: extracellular domain
notes: Mouse soluble TNF receptor 1 from R&D Systems
- effect on TNF-gamma-alpha-induced apoptosis ([1]; BPAEC): Neither sTNFR1 nor sTNFR2 showed effect
- effect on TNFa-induced apoptosis ([1]; BPAEC, same condition): reduced by sTNFR1 significantly

- binding to cells expressing TNF-gamma-beta (FACS) [3]: did not bind
B3: HveA-Fc: extracellular domain of HveA (aa 1-192) fused to Fc of human IgG1 (protein)
chain: LPSCKEDEYPVGSECCPKCSPGYRVKEACGELTGTVCEPCPPGTYIAHLNGLSKCLQCQMCDPAMGLRASRNCSRTENAVCGCSPGHFCIVQDGDHCAACRAYATSSPGQRVQKGGTESQDTLCQNCPPGTFSPNGTLEECQHQTKCSWLVTKA
modifications: left off: a dimerising Fc or GST
notes: extracellular domain of HveA (aa 1-192) fused to Fc of human IgG1

- Kd [4]: 6.45 nM
- kon [4]: 639000 M⁻¹ s⁻¹
B4: DR3-Fc (extracellular domain of human DR3, aa 1-199, fused to the Fc domain of human IgG1) (Fc fusion, UniProt Q93038 25-199, looked up)
chain: QGGTRSPRCDCAGDFHKKIGLFCCRGCPAGHYLKAPCTEPCGNSTCLVCPQDTFLAWENHHNSECARCQACDEQASQVALENCSAVADTRCGCKPGWFVECQVSQCVSSSPFYCQPCLDCGALHRHTRLLCSRRDTDCGTCLPGFYEHGDGCVSCPTSTLGSCPERCAAVCGWRQ
notes: range 1-199; not shown: Fc domain of human IgG1, fused in-frame to the C-terminus of the receptor part
